Holding throughout (experiment): NCI anticancer screen, dose series, 48 h
In test [1] the test system is SK-MEL-28 melanoma.
For test [2], the system named is SNB-19 CNS.
Test [3] concerns HL-60(TB) leukemia.
Test [4] has as its system LOX IMVI melanoma.
Test [5] concerns A549 NSCLC.
For test [6], the system named is NCI/ADR-RES ovarian.
Test [7] has as its system 786-0 renal.
In test [8] the test system is SK-MEL-5 melanoma.
For test [9], the system named is SK-MEL-2 melanoma.
In test [10] the test system is HCT-116 colon.
Test [11] has as its system ACHN renal.
The test system of test [12] is SK-OV-3 ovarian.
Test [13] relates to OVCAR-8 ovarian.
Test [14] concerns SF-295 CNS.
Test [15] has as its system SN12C renal.
Test [16] has as its system A498 renal.
Test [17] has as its system UACC-62 melanoma.
In test [18] the test system is K-562 leukemia.
The test system of test [19] is NCI-H226 lung.
In test [20] the test system is MDA-MB-231 breast.

This passage reports TGI results from PubChem BioAssay (NCI).

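Interpolation was linear, between the two tested concentrations surrounding the appropriate level; five concentrations were tested over 48 hours in 96-well plates. TGI is the concentration that stops growth completely.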 A value given as a limit tells only on which side of the number the result lay.

`C[C@@H]1C(=O)O[C@H]1[C@H](O)CO`: the TGI in test [1], in test [2], in test [3], in test [4], in [5] and in [6] was greater than 100 µM throughout. Further, the TGI in test [7], in [8], in test [9], in test [10], in test [11] and in [12] was greater than 100 µM throughout. Besides, the TGI in test [13], in test [14], in [15], in [16] and in test [17] was greater than 100 µM in each case.

Consider `CON(C)C(=O)[C@H]1C[C@@]1(C)CO`, for which the TGI in test [1], in test [2], in [5], in test [6], in test [7] and in [8] was greater than 100 µM each time. The TGI in test [18], in [9], in [10], in test [11], in [12] and in test [13] was greater than 100 µM in each case. The TGI in [14], in test [15], in test [16], in [17], in test [19] and in test [20] was greater than 100 µM throughout.

Regarding `CC(O)CN1c2ccccc2Sc2ccccc21` (configuration not stated), the TGI in test [1], in test [2], in test [4], in test [5], in test [6] and in test [7] was greater than 100 µM throughout. The TGI in test [8], in [18], in [10], in test [11], in test [12] and in test [13] was greater than 100 µM in each case. The TGI in test [14], in test [15], in test [16], in test [17], in [19] and in test [20] was greater than 100 µM in each case.

As for `COc1ccc2nc3c([N+](=O)[O-])ccc4c3c(c2c1)NCCN4CCN(C)C`, the TGI in [1] came to 3.08 µM; in test [2], 2.27 µM; in test [4], 1.45 µM; in test [5], 2.19 µM; in [6], 3.25 µM; in [7] it was 1.79 µM. Also, the TGI in test [8] was 2.08 µM; in test [18], greater than 10 µM; in test [9], 2.92 µM; in test [10], 1.3 µM; in [11], 1.66 µM; in test [12], 0.973 µM. For the same molecule, the TGI in [13] was greater than 10 µM; in test [14] it was 1.69 µM; in [15], 3.28 µM; in [16] it was 3.12 µM; in test [17], 1.96 µM; in [19], 7.13 µM. The TGI in test [20] was 1.88 µM.

As for `CC[C@]12C=CCN3CCC4(c5cc([C@@]6(C(=O)OC)CC7CN(CCc8c6[nH]c6ccccc86)C[C@@H]6CCCC[C@H]76)c(OC)cc5N(C)C4[C@](O)(C(=O)OC)C1OC(C)=O)[C@@H]32` (some centres not stated), the TGI in test [1] was 17.1 µM; in test [2], 18.1 µM; in [4], 12.4 µM; in [5], 14.6 µM; in [6], 0.0886 µM; in test [7], 12.5 µM. Besides, the TGI in test [8] is less than 0.01 µM; in test [9] it was 7.85 µM; in test [10], 1.73 µM; in test [11], 5.53 µM; in test [15] it was 18.3 µM; in [17] it was 17.8 µM. Further, the TGI in [19] is 15.3 µM; in test [20], less than 0.01 µM.

In the case of `COC(=O)c1cc(=O)n(-c2ccc3nn(C)nc3c2)cc1C(=O)OC`, the TGI in test [1], in test [2], in [5], in test [6], in [7] and in [8] was greater than 100 µM throughout. For the same molecule, the TGI in test [18], in test [9], in test [10], in test [11], in [12] and in test [13] was greater than 100 µM each time. The TGI in [14], in test [15], in test [16], in test [17], in test [19] and in [20] was greater than 100 µM each time.

As for `O=C(NCCC1CN(C(=O)OCc2ccccc2)c2ccccc21)OCc1ccccc1` (configuration not stated), the TGI in test [1], in test [2], in test [5], in [6], in test [7] and in [8] was greater than 100 µM in each case. In addition, the TGI in test [18], in test [9], in test [10], in [11], in test [12] and in test [13] was greater than 100 µM throughout. Further, the TGI in test [14], in [16], in [17] and in [20] was greater than 100 µM each time.

Consider `CC(=O)c1cc2c(s1)C(=O)c1sccc1C2=O`, for which the TGI in test [2] came to 0.202 µM; in [4] it was 0.0249 µM; in test [5] it was 0.433 µM; in [6], 0.309 µM; in [7], 0.421 µM; in test [8], 0.0216 µM. Also, the TGI in test [18] is 0.174 µM; in [9], 0.193 µM; in test [10] it was 0.489 µM; in test [12], 3.2 µM; in test [13] it was 0.227 µM; in test [14] it was 0.0852 µM. Moreover, the TGI in test [15] came out at 0.0294 µM; in test [16], 2.77 µM; in [17] it was 0.0898 µM; in test [19], 0.407 µM; in test [20], 0.151 µM.
